According to US5770434A, “Soluble peptides having constrained, secondary conformation in solution and method of making same” (IXSYS Incorporated, priority 1995, dated 1998):

What was measured:
[1] = tested on: ligand-binding protein (in this example, an antibody); experiment: Panning of phage-displayed peptide library against a ligand-binding protein (antibody), protein A-coated dishes; settings: phage-expressed peptide, compared with the general phage population
[2] = Solubility of the secreted expressed peptide
Description: The oligonucleotide encoding this peptide is cloned into a vector that allowed secretion of the expressed peptide. The peptide […]

| Sequence | ligand binding affinity [1] | soluble at a concentration of [2] |
| --- | --- | --- |
| CDDQYYTDHEQGKCEVALYYTG [SEQ. ID. NO.: 63, peptide selected from phage library] | high affinity |  |
| TQSKCSTDHWLGYIEYFIMCTY [SEQ. ID. NO.: 62, twenty-two amino acid peptide selected from phage library] | highest affinity | ≥ 4 mg/mL |
